This is an account of results in patent US20120058172A1, “PLANT EXTRACTS FOR USE IN BRAIN MODULATION” (Intermed Discovery GmbH, priority 2006, published 2012).

SMILES strings stand for the structures.

This test has as its system mouse. Briefly: Marble burying test in the mouse. It is filed as in vivo. As to conditions: for Number of marbles covered by sawdust, mean ± s.e.m.: 15 mice per group. From the text:
More preferably, psychotropic activity can be tested using the Marble Burying Test in the mouse. The method, which detects anxiolytic/tranquillizing activity, follows that described by Broekkamp et al (Eur. J. Pharmacol., 126, 223-229, 1986). The principle of the test is that mice exposed to novel objects (marbles) will bury them in the sawdust floor covering. Anxiolytics decrease the number of marbles buried at non-sedative doses. For the experiment, mice (Male Rj: NMRI mice, weighing 20-30 g (max. range per experiment=5 g) at the beginning of the experiments, obtained from Elevage Janvier, 53940 Le Genest-Saint-Isle, France) are individually placed in transparent plastic cages (33×21×18 cm) with 5 cm of sawdust on the floor. 25 marbles are grouped in the centre of the cage. The cage is covered with an inverted plastic cage. Each test cage, together with the marbles, is impregnated with mouse odor before-hand by leaving 10 mice in the cage for 15 minutes. These mice then play no further role in the experiment. The mice are treated with test substance intraperitoneally (i.p.) 30 min before the test. Administration volume: 10 ml/kg, different dosages are tested (e.g. 2 or more dosages selected from 1, 3, 10, 30 and 100 mg/kg). The test substance is tested for solubility by cold stirring of the highest intended dose for 10 minutes in physiological saline. If soluble, physiological saline serves as vehicle. If insoluble, the test substance is homogenized and dispersed using a mortar and a pestle in 0.2% hydroxypropylmethylcellulose (HPMC) in physiological saline which then serves as the vehicle. Unless indicated otherwise, doses are prepared W/V (stock) and then V/V (serial dilutions) for test substances in solution, and by separate weighings (W/V) for test substances in suspension. Preparations are made freshly for each day of administration and precautions are taken to preserve the homogeneity of suspensions (if applicable) during the period of administration. As control, vehicle is administered. The number of marbles covered by sawdust (2/3 or more) is then counted at the end of a 30 minute test. 15 mice are studied per group. The test is performed blind. Each test substance is evaluated at 3 doses, administered i.p. 30 minutes before the test, and compared with a vehicle control group. Fluoxetine (32 mg/kg i.p.), administered under the same experimental conditions, is used as reference substance. Each experiment therefore includes 5 groups. Data are analyzed by comparing treated groups with vehicle control using unpaired Student's t tests, using commercial software (Microsoft Excel®, SAS® Version 8.2, GB Stat® Version 6.5). With this test system, with compounds of the formula I a decrease of the number of marbles buried and thus an anxiolytic effect can be found, preferably a significant effect (p<0.01) by an i.p. dosage in the range from 1 to 100 mg/kg.
The test is performed as described above.

As for `CNCCC(Oc1ccc(C(F)(F)F)cc1)c1ccccc1` (centres unmarked) [FLUOXETINE, Fluoxetine, reference compound], under “32 mg/kg i.p. −30 min”, the “Number of marbles covered by sawdust, % change from control (Vehicle)” value was −100% and the “Number of marbles covered by sawdust, mean ± s.e.m.” value was determined as 0.0 ± 0.0.

Turning to `CC(C)C[C@@H](c1c(O)c(C=O)c(O)c(C=O)c1O)[C@@]1(C)CC[C@@H]2[C@@H]1[C@H]1[C@@H](CC[C@@]2(C)O)C1(C)C` [Macrocarpale A, Macrocarpal A], the “Number of marbles covered by sawdust, % change from control (Vehicle)” value reads like this: (1 mg/kg i.p. −30 min) −5%; (3 mg/kg i.p. −30 min) −37%; (10 mg/kg i.p. −30 min) −53%. Further, the “Number of marbles covered by sawdust, mean ± s.e.m.” value by setting is: (1 mg/kg i.p. −30 min) 15.7 ± 2.5 NS; (3 mg/kg i.p. −30 min) 10.4 ± 2.3 NS; (10 mg/kg i.p. −30 min) 7.7 ± 2.4.
